From patent US20260130918A1, “TRANSCRIPTION FACTOR PFAP2-O5 INHIBITOR FOR PLASMODIUM FALCIPARUM, PHARMACEUTICAL COMPOSITION, AND DRUG FOR TREATING MALARIA RESISTANT TO ARTEMISININ AND ANALOG THEREOF” (priority 2023, published 2026)
pIC50: −log10 of the molar value. “Also recorded” adds a separate entry of the source.

Experiments:
Plasmodium falciparum = assay: 3-day SYBR Green I in vitro growth inhibition of Plasmodium falciparum; assay type: cell-based; conditions: wild-type Plasmodium falciparum, 72 hours, read-out: IC50 of growth inhibition on in vitro culture of Plasmodium falciparum
Experimental: 100 μL of complete culture medium was added to a 96-well plate. 200 μL of a compound stock solution with a concentration of 200 μM was added to the first well. Gradient dilution (11 concentration gradients) was performed at a 1/2 ratio according to the doubling gradient dilution. Dihydroartemisinin (DHA) was used as a positive control, complete culture medium was used as a negative control, and red blood cells without Plasmodium falciparum or compounds were used as a background control.
100 μL of wild-type Plasmodium falciparum culture (1% parasitemia, 4% hematocrit) was accurately added to each well, so that finally, the parasitemia in each well was 0.5%, and the hematocrit was 2%. The final concentration gradients of the compound were 100 μM, 50 μM, 25 μM, 12.5 μM, 6.25 μM, 3.125 μM, 1.5625 μM, 0.78125 μM, 0.390625 μM, 0.195313 μM, and 0.097656 μM. […] After the incubation was completed, a fluorescence intensity was recorded on a microplate reader with an excitation wavelength of 485 nm and an emission wavelength of 535 nm. The inhibition rate of the small molecule inhibitor on the growth of Plasmodium falciparum was calculated based on the fluorescence intensity.
[formula] • where Fltreated, Flbackground, and Flcontrol represent the fluorescence intensity values of the candidate small molecule drug group, the red blood cell control group, and the untreated control group, respectively. […]

293T cells = assay: 3-day CCK-8 cytotoxicity assay, 293T; assay type: cell-based, human; conditions: 72 hours
Experimental: (§1) Mammalian 293T and HepG2 cells were cultured and passaged, trypsinized, and resuspended in DMEM. The cells were counted using a hemocytometer and diluted to 10^5 cells/mL. The cell suspension was evenly added to a 96-well plate, with 100 μL per well. After the cells were subjected to attachment culture in a 37° C. incubator (5% CO2) for 24 hours, the inhibitors of the corresponding concentrations were added. Gradient dilution (11 concentration gradients) was performed at a 1/2 ratio according to the doubling gradient dilution. Complete culture medium was used as a negative control, and DMEM was used as a background control. After the culture in a 37° C. incubator (5% CO2) for 72 hours, 10 µL of CCK8 reagent was added to each well. The plate was incubated in a 37° C. incubator (5% CO2) for 1 hour. The absorbance at a 450 nm wavelength was read by a microplate reader, and a survival rate was calculated based on the absorbance.
(§2) [formula] • where Abtreated, Abbackground, and Abcontrol represent the absorbance values of the small molecule drug group, the DMEM control group, and the untreated control group, respectively. The inhibition rate of the drug was calculated based on the survival rate at different concentrations, and the growth inhibition curve was summarized as inhibition rate-drug concentration. The IC50 was calculated using SPSS 18.0 software.

HepG2 cells = assay: 3-day CCK-8 cytotoxicity assay, HepG2; assay type: cell-based, human; conditions: HepG2, 72 hours
Experimental: as §1, §2

[1] = tested on: PfAP2-O5 target genes (invasion genes); assay: RNA-seq analysis of invasion gene expression after inhibitor treatment; assay type: cell-based, Plasmodium falciparum; conditions: wild-type strain treated with 1 M triazoloquinoline derivative for one life cycle
Experimental: Wild-type and pfap2-o5 conditional knockdown Plasmodium falciparum strains were treated with the triazoloquinoline derivative represented by formula (I), respectively. After strict synchronization of the Plasmodium falciparum strains, […] triazoloquinoline derivative was added one life cycle in advance. After one life cycle, the ring (10-15 hours), trophozoite (28-32 hours), and schizont (40-44 hours) stage cultures of the wild-type and pfap2-o5 conditional knockdown Plasmodium falciparum strains treated with the triazoloquinoline derivative were collected. Total RNA was purified using the Direct-zol RNA kit, strand-specific RNA sequencing libraries were then prepared using KAPA mRNA beads, and the RNA was fragmented. The libraries were sequenced on the Illumina HiSeq X Ten system, and the differential gene expression between the two Plasmodium falciparum strains after inhibitor treatment was analyzed.

[2] = Liver microsomal metabolism, mouse; assay type: in vitro ADME; set-up: half-life / CLint scaled: dose or concentration left out as unconfirmed
Experimental: (§3) In the microsomal metabolism assay, the inhibitor was incubated with liver microsomes from different species; the reaction was terminated at different time points; the remaining amount of the inhibitor in the samples at each time point was determined using LC-MS/MS. The percentage of parent drug remaining was calculated, and the hepatic intrinsic clearance CLinit(liver) was finally obtained. Testosterone was used as a control in this study to verify the reliability of the experimental system. The detailed procedures were as follows:
(§4) The incubation system consisted of 0.1 M Tris-HCl buffer (pH 7.4), 1 mM MgCl2, 1 mM NADPH (Nicotinamide Adenine Dinucleotide Phosphate), and 0.5 mg/mL microsomes, and the final reaction volume was 200 μL. […] inhibitor and testosterone were pre-incubated with liver microsomes from different species in a 37° C. water bath for 5 minutes. 100 μL of NADPH was added to initiate the reaction. 400 μL of stop solution was added to terminate the reaction at time points of 0 minutes, 5 minutes, 15 minutes, 30 minutes, 45 minutes, and 60 minutes. 40 μL of internal standard was added, and the mixture was vortexed for 5 minutes and centrifuged at […] and 4° C. for 5 minutes. 100 μL of the supernatant was taken and diluted with 100 μL of water for injection and analysis. The retention time of the compound and the internal standard, chromatogram acquisition, and chromatogram integration were processed by Analyst 1.6.3 software. The compound was subjected to linear regression with a weighting coefficient of 1/X^2 to calculate the concentration at each time point. The natural logarithm of the percentage remaining at each time point was linearly regressed against the incubation time to calculate the in vitro elimination rate constant k. The half-life (T1/2) and hepatic intrinsic clearance CLint(liver) of the test article were calculated according to the following formula.
(§5) hepatic microsomal clearance CLint(mic)=0.693/half-life/mg microsomal protein per mL; hepatic intrinsic clearance CLint(liver)=hepatic microsomal clearance×mg microsomal protein/gram of liver×liver weight-to-body weight ratio. The liver weight-to-body weight ratios of mice, rats, and humans were […], respectively; the average value of mg microsomal protein/gram of liver in different species was 45.

[3] = Liver microsomal metabolism, rat; assay type: in vitro ADME; set-up: half-life / CLint scaled: dose or concentration left out as unconfirmed
Experimental: as §3, §4, §5

[4] = Liver microsomal metabolism, human; assay type: in vitro ADME; set-up: half-life / CLint scaled: dose or concentration left out as unconfirmed
Experimental: as §3, §4, §5

[5] = tested on: artemisinin-resistant Plasmodium falciparum strains; assay: Ring-stage survival assay against resistant Plasmodium falciparum strains; assay type: cell-based; conditions: in combination with DHA, 6 hours exposure, then 66 hours culture
Experimental: This experiment aimed to evaluate the killing effect of the triazoloquinoline derivative as a combination drug against drug-resistant Plasmodium falciparum strains using the gold-standard drug resistance assay. The detailed implementation procedures were as follows: • 1. Culture of Plasmodium falciparum when the parasitemia was greater than 4% and most parasites were at the ring (R) stage, the culture was synchronized with Sorbitol for 10 minutes and vortexed for 5 seconds; • 2. Synchronization with sorbitol was repeated 30-48 hours later (depending on the parasite stage); • 3. Smear test under microscope after approximately 30 hours of culture: if the proportion of the mature schizont (S) stage (10-12 merozoites) was greater than 0.5%, the operation proceeded to procedure 4; if the proportion of the mature S stage (10-12 merozoites) was less than 0.5%, procedure 2 was repeated; • 4. […] After the culture was mixed well, approximately 200 μL of the culture was pipetted and centrifuged for smear test under microscope (this could be done approximately 10 minutes in advance); the parasitemia was quickly calculated (must be greater than 0.5%); • 7. […] After 66 hours of the culture, smear test under microscope was performed to calculate the parasitemia, and the survival rate was calculated.

Cc1cccc(-c2nnc3c4ccccc4nc(N4CCN(C(=O)Cc5ccccc5)CC4)n23)c1 [triazoloquinoline derivative]
pIC50 (Plasmodium falciparum): 5.58
cytotoxicity to mammalian cells (293T) (293T cells): low cytotoxicity; also recorded: almost no toxicity
cytotoxicity to mammalian cells (HepG2) (HepG2 cells): low cytotoxicity; also recorded: almost no toxicity
decrease of expression levels of merozoite surface structural protein family genes (mRNA level) [1]: more than 1.5 fold
CLint scaled ([2]; liver microsomes, pH 7.4, mouse, hepatic intrinsic clearance scaled from microsomes): 342 mL/min/kg
clearance classification ([2]; mouse liver microsomes): high-clearance compound
k ([2]; mouse liver microsomes, 0.5 mg/mL, NADPH): 0.0432 min⁻¹
half-life ([2]; pH 7.4, mouse liver microsomes): 16 min
CLint scaled ([3]; liver microsomes, pH 7.4, rat, hepatic intrinsic clearance scaled from microsomes): 59.4 mL/min/kg
half-life ([3]; pH 7.4, rat liver microsomes): 42 min
clearance classification ([3]; rat liver microsomes): moderate-clearance compound
k ([3]; rat liver microsomes, 0.5 mg/mL, NADPH): 0.0165 min⁻¹
clearance classification ([4]; human liver microsomes): moderate-clearance compound
k ([4]; human liver microsomes, 0.5 mg/mL, NADPH): 0.0053 min⁻¹
CLint scaled ([4]; liver microsomes, pH 7.4, human, hepatic intrinsic clearance scaled from microsomes): 8.54 mL/min/kg
half-life ([4]; pH 7.4, human liver microsomes): 131 min
killing effect against artemisinin-resistant strains (ring-stage survival) [5]: more effectively kill
